Assay results as given in PMC6696243, “Synthesis and In Vitro Evaluation of 8-Pyridinyl-Substituted Benzo[e]imidazo[2,1-c][1,2,4]triazines as Phosphodiesterase 2A Inhibitors” (Molecules, 2019).
Values joined by “and” are separate entries in the source; they are usually repeats but may differ in a detail not shown here. Identical values can stand only once. “Also recorded” adds a separate entry of the source.

How the values were obtained:
[1] = system: PDE10A; design: method as in PMID 27213312, PMID 26016549, PMID 29498659; settings: Figure 1; cited from earlier work
[2] = system: PDE2A; settings: cited from earlier work; for IC50: Figure 1
[3] = Incubation with mouse liver microsomes, HPLC-UV-MS
Description: After protein precipitation by addition of acetonitrile and subsequent centrifugation, the supernatant was examined by HPLC-UV-MS.
Analogously, preincubated NADPH (2 mM) was added, and the mixtures were gently shaken at 37 °C. After 90 min, portions of 1.0 mL of cold acetonitrile (−20 °C) were added, respectively, followed by vigorous shaking (30 s), cooling on ice (4 min), and centrifugation at 14,000 rpm (10 min). Supernatants were concentrated at 50 °C under a flow of nitrogen to provide residual volumes of 40–60 µL, which were reconditioned by adding acetonitrile/water 1:1 (v/v) to obtain samples of 100 µL, which were stored at 4 °C until analyzed by HPLC-UV-MS.
HPLC-UV-MS analyses were performed on a ReproSil-Pur 120 C18-AQ-column, 125 mm × 3 mm, 3 µm (Dr. Maisch GmbH, Ammerbuch, Germany) equipped with an appropriate precolumn at 25 °C and a flow rate of 0.7 mL/min. The solvent system consisted of Eluent A: water, containing 2 mM ammonium acetate, and Eluent B: water/acetonitrile 20/80 (v/v), containing 2 mM ammonium acetate. Two methods were applied. Method A (gradient elution, % acetonitrile): 0–1.5 min, 10%; 1.5–10 min, 10–80%; 10-13 min, 80%; 13–16 min 10%. Method B (isocratic elution, % acetonitrile): 0–25 min, 42%. […] MSQ Plus single quadrupole mass spectrometer was operated in positive electrospray ionization mode: probe temperature 500 °C, needle voltage 5 V, cone voltage 75 V.

[4] = biological target: T1, PDE7A (Homo sapiens, UniProt Q13946); assay: PDE7A radiometric enzyme inhibition assay; format: biochemical; settings: measured at 1 µM
T1 construct: purchased SB Drug Discovery (Scotland, U.K.); host or cells: baculoviral system

[5] = biological target: T2, PDE4A1 (Homo sapiens, UniProt P27815); assay: PDE4A1 radiometric enzyme inhibition assay; format: biochemical; settings: compound at 1 µM; read-out: Inhibition of PDE Sub-Types (%) 4A1
T2 construct: purchased SB Drug Discovery (Scotland, U.K.); host or cells: baculoviral system
T2 sequence (P27815 1-647 isoform P27815-4): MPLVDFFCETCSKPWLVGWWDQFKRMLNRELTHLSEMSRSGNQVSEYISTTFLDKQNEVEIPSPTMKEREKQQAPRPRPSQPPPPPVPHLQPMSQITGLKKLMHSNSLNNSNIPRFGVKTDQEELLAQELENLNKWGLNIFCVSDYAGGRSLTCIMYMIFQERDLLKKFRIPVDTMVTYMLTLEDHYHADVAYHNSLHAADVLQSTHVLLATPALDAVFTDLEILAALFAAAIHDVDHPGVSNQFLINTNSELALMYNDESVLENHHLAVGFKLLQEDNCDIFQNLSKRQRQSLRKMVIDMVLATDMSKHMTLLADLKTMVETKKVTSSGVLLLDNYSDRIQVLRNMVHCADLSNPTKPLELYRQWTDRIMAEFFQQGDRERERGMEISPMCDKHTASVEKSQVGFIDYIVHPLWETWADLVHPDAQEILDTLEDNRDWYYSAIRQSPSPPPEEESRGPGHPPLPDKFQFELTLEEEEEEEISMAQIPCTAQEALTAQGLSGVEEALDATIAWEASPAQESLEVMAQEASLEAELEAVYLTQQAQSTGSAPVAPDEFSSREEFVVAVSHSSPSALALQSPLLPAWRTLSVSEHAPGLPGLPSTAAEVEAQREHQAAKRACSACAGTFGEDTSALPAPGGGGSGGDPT

[6] = biological target: T3, PDE6AB (Homo sapiens, UniProt P16499+P35913); assay: PDE6AB radiometric enzyme inhibition assay; format: biochemical; settings: measured at 1 µM
T3 construct: purchased SB Drug Discovery (Scotland, U.K.); host or cells: baculoviral system

[7] = biological target: T4, PDE8A1 (Homo sapiens, UniProt O60658); assay: PDE8A1 radiometric enzyme inhibition assay; format: biochemical; settings: measured at 1 µM
T4 construct: purchased SB Drug Discovery (Scotland, U.K.); host or cells: baculoviral system
T4 sequence (O60658 whole entry): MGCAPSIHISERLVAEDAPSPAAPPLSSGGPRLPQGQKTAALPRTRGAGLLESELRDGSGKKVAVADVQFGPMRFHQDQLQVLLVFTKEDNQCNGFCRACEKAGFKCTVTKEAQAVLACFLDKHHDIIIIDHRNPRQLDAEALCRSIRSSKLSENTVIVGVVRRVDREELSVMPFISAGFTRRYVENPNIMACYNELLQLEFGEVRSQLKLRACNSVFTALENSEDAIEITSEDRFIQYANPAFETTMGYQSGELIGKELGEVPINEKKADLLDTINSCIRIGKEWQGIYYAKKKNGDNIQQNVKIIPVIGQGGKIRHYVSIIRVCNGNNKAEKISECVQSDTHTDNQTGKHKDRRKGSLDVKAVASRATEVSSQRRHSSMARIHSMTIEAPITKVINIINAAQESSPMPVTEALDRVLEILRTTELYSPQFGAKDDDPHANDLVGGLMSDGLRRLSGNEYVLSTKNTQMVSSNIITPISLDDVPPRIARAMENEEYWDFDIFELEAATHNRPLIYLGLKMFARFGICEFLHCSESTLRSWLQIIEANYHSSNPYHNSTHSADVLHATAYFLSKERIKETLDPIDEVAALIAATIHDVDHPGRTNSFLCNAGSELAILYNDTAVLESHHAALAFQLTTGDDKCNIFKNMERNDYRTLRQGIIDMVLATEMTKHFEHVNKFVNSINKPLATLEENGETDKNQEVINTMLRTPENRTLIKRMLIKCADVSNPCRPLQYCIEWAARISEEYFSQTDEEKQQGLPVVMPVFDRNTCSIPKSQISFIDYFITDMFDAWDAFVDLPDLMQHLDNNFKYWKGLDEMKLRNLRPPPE

[8] = biological target: T5, PDE1A3 (Homo sapiens, UniProt P54750); assay: PDE1A3 radiometric enzyme inhibition assay; format: biochemical; settings: measured at 1 µM
T5 construct: purchased SB Drug Discovery (Scotland, U.K.); host or cells: baculoviral system

[9] = biological target: T6, PDE11A (Homo sapiens, UniProt Q9HCR9); assay: PDE11A radiometric enzyme inhibition assay; format: biochemical; settings: measured at 1 µM
T6 construct: purchased SB Drug Discovery (Scotland, U.K.); host or cells: baculoviral system

[10] = biological target: T7, PDE5A1 (Homo sapiens, UniProt O76074); assay: PDE5A1 radiometric enzyme inhibition assay; format: biochemical; settings: compound at 1 µM; read-out: Inhibition of PDE Sub-Types (%) 5A1
T7 construct: purchased SB Drug Discovery (Scotland, U.K.); host or cells: baculoviral system

[11] = biological target: T8, PDE9A1 (Homo sapiens, UniProt O76083); assay: PDE9A1 radiometric enzyme inhibition assay; format: biochemical; settings: compound at 1 µM; read-out: Inhibition of PDE Sub-Types (%) 9A1
T8 construct: purchased SB Drug Discovery (Scotland, U.K.); host or cells: baculoviral system
T8 sequence (O76083 whole entry): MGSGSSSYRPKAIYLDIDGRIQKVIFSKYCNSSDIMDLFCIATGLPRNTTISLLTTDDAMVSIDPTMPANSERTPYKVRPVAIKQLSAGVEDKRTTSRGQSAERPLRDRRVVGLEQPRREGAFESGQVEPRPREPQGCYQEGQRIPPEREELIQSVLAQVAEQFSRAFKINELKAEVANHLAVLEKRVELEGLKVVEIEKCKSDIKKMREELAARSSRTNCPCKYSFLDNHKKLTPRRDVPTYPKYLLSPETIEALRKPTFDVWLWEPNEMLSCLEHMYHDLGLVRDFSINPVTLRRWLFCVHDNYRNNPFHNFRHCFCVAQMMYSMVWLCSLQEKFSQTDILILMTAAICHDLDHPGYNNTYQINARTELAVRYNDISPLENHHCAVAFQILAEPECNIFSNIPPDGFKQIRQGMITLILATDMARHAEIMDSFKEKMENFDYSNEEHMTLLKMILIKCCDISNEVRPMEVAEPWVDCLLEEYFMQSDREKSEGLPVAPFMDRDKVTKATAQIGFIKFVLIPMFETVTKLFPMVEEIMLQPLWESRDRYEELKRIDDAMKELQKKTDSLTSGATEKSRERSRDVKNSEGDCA

[12] = biological target: T9, PDE3A (Homo sapiens, UniProt Q14432); assay: PDE3A radiometric enzyme inhibition assay; format: biochemical; settings: measured at 1 µM
T9 construct: purchased SB Drug Discovery (Scotland, U.K.); host or cells: baculoviral system
T9 sequence (Q14432 whole entry): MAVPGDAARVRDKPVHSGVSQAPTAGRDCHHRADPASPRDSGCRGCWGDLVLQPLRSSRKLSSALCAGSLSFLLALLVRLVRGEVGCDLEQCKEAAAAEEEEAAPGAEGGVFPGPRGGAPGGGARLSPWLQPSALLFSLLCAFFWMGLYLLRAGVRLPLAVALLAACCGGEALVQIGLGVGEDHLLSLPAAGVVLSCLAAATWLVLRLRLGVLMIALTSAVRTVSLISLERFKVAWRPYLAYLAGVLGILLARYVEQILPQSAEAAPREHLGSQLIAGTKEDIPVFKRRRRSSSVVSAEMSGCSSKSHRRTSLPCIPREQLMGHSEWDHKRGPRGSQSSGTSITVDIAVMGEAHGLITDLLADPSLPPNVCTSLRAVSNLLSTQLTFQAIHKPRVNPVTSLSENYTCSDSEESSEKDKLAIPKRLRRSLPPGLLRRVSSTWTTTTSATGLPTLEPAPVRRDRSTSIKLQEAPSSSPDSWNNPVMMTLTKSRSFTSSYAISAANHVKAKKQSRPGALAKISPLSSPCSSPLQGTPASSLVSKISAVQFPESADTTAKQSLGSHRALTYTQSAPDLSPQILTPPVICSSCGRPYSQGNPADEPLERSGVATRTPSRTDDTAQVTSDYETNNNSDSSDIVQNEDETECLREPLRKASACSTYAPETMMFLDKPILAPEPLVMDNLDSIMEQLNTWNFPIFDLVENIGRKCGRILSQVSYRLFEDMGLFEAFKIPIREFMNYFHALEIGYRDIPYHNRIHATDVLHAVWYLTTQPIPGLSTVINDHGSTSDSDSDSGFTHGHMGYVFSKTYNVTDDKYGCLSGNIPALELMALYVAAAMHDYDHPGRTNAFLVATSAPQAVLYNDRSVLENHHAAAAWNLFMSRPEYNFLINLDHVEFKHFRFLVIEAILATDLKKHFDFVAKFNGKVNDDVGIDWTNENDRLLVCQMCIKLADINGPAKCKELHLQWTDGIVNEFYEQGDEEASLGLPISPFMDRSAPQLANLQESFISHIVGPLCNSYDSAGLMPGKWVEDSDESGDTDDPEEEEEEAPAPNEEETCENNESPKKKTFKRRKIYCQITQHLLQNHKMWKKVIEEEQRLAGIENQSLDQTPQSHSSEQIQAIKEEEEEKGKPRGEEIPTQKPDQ

[13] = biological target: T10, human PDE2A3 (Homo sapiens, UniProt O00408); assay: PDE2A3 radiometric enzyme inhibition assay; settings: for Inhibition of PDE Sub-Types (%) 2A3: compound at 10 nM; for Selectivity Ratio (PDE10A/PDE2A): ratio of IC50 PDE10A to IC50 PDE2A, fold
T10 sequence (O00408 whole entry): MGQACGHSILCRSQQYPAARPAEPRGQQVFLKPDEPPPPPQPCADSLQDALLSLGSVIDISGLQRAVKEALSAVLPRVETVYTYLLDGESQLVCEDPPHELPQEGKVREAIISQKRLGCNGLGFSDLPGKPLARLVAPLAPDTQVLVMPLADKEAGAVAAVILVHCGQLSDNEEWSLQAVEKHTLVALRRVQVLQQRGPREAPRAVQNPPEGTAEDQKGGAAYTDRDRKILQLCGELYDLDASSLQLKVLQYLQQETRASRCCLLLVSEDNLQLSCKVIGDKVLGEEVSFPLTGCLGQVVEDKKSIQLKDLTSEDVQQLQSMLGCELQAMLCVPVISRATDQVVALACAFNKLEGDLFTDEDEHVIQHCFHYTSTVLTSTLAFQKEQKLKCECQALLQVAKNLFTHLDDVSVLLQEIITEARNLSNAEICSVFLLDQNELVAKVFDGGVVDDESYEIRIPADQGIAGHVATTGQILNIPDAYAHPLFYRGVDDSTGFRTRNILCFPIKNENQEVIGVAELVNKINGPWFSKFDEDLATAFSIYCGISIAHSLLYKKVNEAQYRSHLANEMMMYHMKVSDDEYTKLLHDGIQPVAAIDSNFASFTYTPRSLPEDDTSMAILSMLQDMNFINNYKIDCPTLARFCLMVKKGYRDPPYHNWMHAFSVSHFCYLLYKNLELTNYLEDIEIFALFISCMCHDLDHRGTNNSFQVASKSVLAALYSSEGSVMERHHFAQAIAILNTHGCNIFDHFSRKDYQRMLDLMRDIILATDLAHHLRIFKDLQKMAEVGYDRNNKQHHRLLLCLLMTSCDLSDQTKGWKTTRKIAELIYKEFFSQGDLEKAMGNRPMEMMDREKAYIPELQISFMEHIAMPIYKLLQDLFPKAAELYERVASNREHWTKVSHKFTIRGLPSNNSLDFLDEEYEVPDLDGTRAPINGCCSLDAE
Description: (§1) The phosphodiesterase assays were performed using recombinant human PDE enzymes expressed in a baculoviral system. […] The radiometric assay was a modification of the two-step method of Thompson and Appleman [45], which was adapted for 96-well plate format.
(§2) Firstly, tritium-labeled cyclic AMP or cyclic GMP was hydrolyzed to 5′-AMP or 5′-GMP by phosphodiesterase. The 5′-AMP or 5′-GMP was then further hydrolyzed to adenosine or guanosine by nucleotidase in snake venom. An anion-exchange resin bound all charged nucleotides and left [^3H]adenosine or [^3H]guanosine as the only labeled compound to be counted by liquid scintillation. Briefly, 50 µL of diluted human PDE enzyme were incubated with 50 µL of [^3H]-cAMP or [^3H]-cGMP and 11 µL of 50% DMSO (or compound dilution) for 20 min (at 30 °C). Reactions were carried out in a Greiner 96-deep well 1-mL master-block. The enzyme was diluted in 20 mM Tris HCl pH 7.4 and [^3H]-cAMP or [^3H]-cGMP are diluted in 10 mM MgCl2, 40 mM Tris HCl pH 7.4. The reaction is terminated by denaturing the PDE enzyme (at 70 °C for 2 min), after which 25 µL of snake venom nucleotidase were added and incubated for 10 min (at 30 °C). Plates were centrifuged for 9 seconds before incubation. After incubation, 200 µL of Dowex resin were added, and the plate was shaken for 20 min then centrifuged for 3 min at 2500 r.p.m. Fifty microliters of supernatant were removed and added to 200 µL of MicroScint-20 in white plates (Greiner 96-well Optiplate) and shaken for 30 min before reading on a Perkin Elmer TopCount Scintillation Counter.
(§3) Compounds were tested at a concentration of 10 nM against human PDE2A3 and at 1 µM for PDE4A1, PDE5A, PDE6AB, PDE9A1, and PDE10A1. The percentage of inhibition of the compounds and standard inhibitors was determined and compared to historical assay data to ensure that they fell within acceptable ranges.

[14] = biological target: T11, PDE10A1 (Homo sapiens, UniProt Q9Y233); assay: PDE10A1 radiometric enzyme inhibition assay; settings: for Inhibition of PDE Sub-Types (%) 10A1: compound at 1 µM
T11 sequence (Q9Y233 1-779 isoform Q9Y233-1): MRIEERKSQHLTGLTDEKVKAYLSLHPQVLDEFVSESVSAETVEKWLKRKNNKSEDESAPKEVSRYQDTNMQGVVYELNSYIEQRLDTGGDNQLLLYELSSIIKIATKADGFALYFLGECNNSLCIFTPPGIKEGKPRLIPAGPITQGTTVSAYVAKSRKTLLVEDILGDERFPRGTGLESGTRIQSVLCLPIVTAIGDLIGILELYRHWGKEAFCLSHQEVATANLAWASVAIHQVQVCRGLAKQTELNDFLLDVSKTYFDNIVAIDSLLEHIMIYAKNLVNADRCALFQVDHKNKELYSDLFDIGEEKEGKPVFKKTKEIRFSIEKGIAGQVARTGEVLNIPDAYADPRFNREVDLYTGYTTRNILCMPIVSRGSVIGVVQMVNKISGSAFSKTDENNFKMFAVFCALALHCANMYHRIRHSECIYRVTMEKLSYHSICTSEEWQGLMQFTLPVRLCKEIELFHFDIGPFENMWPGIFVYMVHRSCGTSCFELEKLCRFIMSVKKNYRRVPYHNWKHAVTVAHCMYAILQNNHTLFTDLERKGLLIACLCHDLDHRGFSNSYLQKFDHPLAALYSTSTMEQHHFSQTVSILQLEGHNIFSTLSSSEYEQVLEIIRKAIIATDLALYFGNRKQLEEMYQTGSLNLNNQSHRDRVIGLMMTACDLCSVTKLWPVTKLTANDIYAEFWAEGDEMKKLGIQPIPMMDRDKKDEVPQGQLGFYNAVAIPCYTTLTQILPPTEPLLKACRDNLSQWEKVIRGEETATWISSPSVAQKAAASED
Description: as §1, §2, §3

[15] = biological target: T11, PDE10A1; assay: biochemical
Description: as §1, §2, §3

[16] = biological target: T10, human PDE2A3; assay: biochemical
Description: as §1, §2, §3

SMILES	IC50 [1] [nM]	IC50 [2] [nM]	inhibition at 1 µM [5] [%]	inhibition at 1 µM [10] [%]	inhibition at 1 µM [11] [%]	Inhibition of PDE Sub-Types (%) 2A3 [13]	Inhibition of PDE Sub-Types (%) 10A1 [14] [%]	further results
COc1cc(Br)cc2c1nc(C)c1c(C)nc(-c3ccc(F)nc3)n12 [AQ28A]	2.95	> 1000	–	–	–	–	–	–
COc1ccc(Cc2nn3c([C@H](CCCc4ccccc4)[C@H](C)O)nc(C)c3c(=O)[nH]2)cc1OC [BAY 60-7550]	–	4.7	–	–	–	–	–	–
COc1ccc(Cl)c(-c2nc(C)c3nnc4ccc(-c5ccnc(F)c5)cc4n23)c1 [BIT1, 1-(2-Chloro-5-methoxyphenyl)-8-(2-fluoropyridin-4-yl)-3methylbenzo[e]imidazo[5,1-c][1,2,4]triazine]	–	–	58.6	29.3	< 0	–	–	Metabolic stability in vitro ([3]; MLM 1 mg/mL, NADPH 2 mM, 20 µM compound, 37 °C, 90 min): unchanged BIT1 could still be detected in high amounts; also recorded: considerable metabolic stability; also recorded: sufficiently stable; inhibition at 1 µM [4]: 16.4%; inhibition at 1 µM [6]: 16.8%; inhibition at 1 µM [7]: 23.3%; inhibition at 1 µM [8]: 12.6%; inhibition at 1 µM [9]: 14.5%; inhibition at 1 µM [12]: 20%
Cc1nc(-c2cc(OCC3(C)COC3)ccc2Cl)n2c1nnc1ccc(-c3ccc(F)nc3)cc12 [BIT2, 1-(2-Chloro-5-((3-methyloxetan-3-yl)methoxy)phenyl)-8-(6-fluoropyridin-3-yl)-3-methylbenzo[e]imidazo[5,1-c][1,2,4]triazine]	–	–	64.1	< 0	< 0	8.52%	2.46	–
Cc1nc(-c2cc(OCC3(C)COC3)ccc2Cl)n2c1nnc1ccc(-c3ccnc(F)c3)cc12 [BIT3, 1-(2-Chloro-5-((3-methyloxetan-3-yl)methoxy)phenyl)-8-(2-fluoropyridin-4-yl)-3-methylbenzo[e]imidazo[5,1-c][1,2,4]triazine]	–	–	72.7	< 0	< 0	13.2%	28.2	–
COc1ccc(Cl)c(-c2nc(C)c3nnc4ccc(-c5ccc(F)nc5)cc4n23)c1 [BIT4, 1-(2-Chloro-5-methoxyphenyl)-8-(6-fluoropyridin-3-yl)-3 methylbenzo[e]imidazo[5,1-c][1,2,4]triazine]	–	–	< 0	< 0	< 0	2.63%	10.8	Selectivity over PDE10A compared to BIT7 [14]: eight
COc1ccc(Cl)c(-c2nc(C)c3nnc4ccc(-c5cccnc5F)cc4n23)c1 [BIT5, 1-(2-Chloro-5-methoxyphenyl)-8-(2-fluoropyridin-3-yl)-3 methylbenzo[e]imidazo[5,1-c][1,2,4]triazine]	–	–	< 0	< 0	< 0	NI (NI: No Inhibition)	22.1	Selectivity over PDE10A compared to BIT7 [14]: four
COc1ccc(F)c(-c2nc(C)c3nnc4ccc(-c5ccnc(F)c5)cc4n23)c1 [BIT6, 1-(2-Fluoro-5-methoxyphenyl)-8-(2-fluoropyridin-4-yl)-3-methylbenzo[e]imidazo[5,1-c][1,2,4]triazine]	–	–	54.2	13.6	28.4	–	74.0	IC50 [15]: 168 nM; Inhibition of PDE Sub-Types (%) 2A3 ([13]; 0.01 µM): 56% and 56.6%; Selectivity Ratio (PDE10A/PDE2A) [13]: 2.5; IC50 [16]: 65.1 nM
COc1ccc(Cl)c(-c2nc(C)c3nnc4ccc(-c5cncc(F)c5)cc4n23)c1 [BIT7, 1-(2-Chloro-5-methoxyphenyl)-8-(3-fluoropyridin-5-yl)-3 methylbenzo[e]imidazo[5,1-c][1,2,4]triazine]	–	–	65.7	25.1	11.5	–	87.0	–
COc1ccc(F)c(-c2nc(C)c3nnc4ccc(-c5cccnc5)cc4n23)c1 [BIT8, 1-(2-Fluoro-5-methoxyphenyl)-3-methyl-8-(pyridin-3-yl)benzo[e]imidazo[5,1-c][1,2,4]triazine]	–	–	13.9	36.2	< 0	NI (NI: No Inhibition)	55.5	–
COc1ccc(F)c(-c2nc(C)c3nnc4ccc(-c5ccncc5)cc4n23)c1 [BIT9, 1-(2-Fluoro-5-methoxyphenyl)-3-methyl-8-(pyridin-4-yl)benzo[e]imidazo[5,1-c][1,2,4]triazine]	–	–	86.8	57.7	17.5	80.5%	96.6	IC50 [15]: 20.2 nM; Selectivity Ratio (PDE10A/PDE2A) [13]: 1.1; IC50 [16]: 17.7 nM
COc1ccc(Cl)c(-c2nc(C)c3nnc4ccc(F)cc4n23)c1 [III]	183	20.1	–	–	–	–	–	–
COc1ccc(Cl)c(-c2nc(C)c3nnc4c(OC)cc(F)cc4n23)c1 [II]	2.45	108	–	–	–	–	–	–
CCCCOc1ccc(F)c(-c2nc(C)c3nnc4ccc(OC)nc4n23)c1 [TA1, reference compound]	–	–	24.9	3.08	< 0	–	–	–
COc1ccc2nnc3c(C)nc(-c4cc(OCCCF)ccc4F)n3c2n1 [TA3]	318	11.4	–	–	–	–	–	Selectivity for PDE2A over PDE10A [2]: 28 fold
COc1ccc2nnc3c(C)nc(-c4cc(OCCCCF)ccc4F)n3c2n1 [TA4]	913	7.3	–	–	–	–	–	Selectivity for PDE2A over PDE10A [2]: 125 fold
CCCCOc1ccc(F)c(-c2nc(C)c3nnc4ccc(OCCF)nc4n23)c1 [TA5]	> 1000	–	–	–	–	–	–	–
C[C@]12CC[C@H]3[C@@H](CCC4=CC(=O)CC[C@@]43C)[C@@H]1CC[C@@H]2O [testosterone, reference compound]	–	–	–	–	–	–	–	Conversion of positive control substrate ([3]; MLM with NADPH, confirmed by HPLC): complete conversion
